In publication doi:10.1101/2024.11.15.623779v1 (biorxiv, 2024):

Molecular target: T1, GCase (Cerezyme) (Homo sapiens, UniProt P04062, R534H)
T1 sequence (P04062 40-536 R534H): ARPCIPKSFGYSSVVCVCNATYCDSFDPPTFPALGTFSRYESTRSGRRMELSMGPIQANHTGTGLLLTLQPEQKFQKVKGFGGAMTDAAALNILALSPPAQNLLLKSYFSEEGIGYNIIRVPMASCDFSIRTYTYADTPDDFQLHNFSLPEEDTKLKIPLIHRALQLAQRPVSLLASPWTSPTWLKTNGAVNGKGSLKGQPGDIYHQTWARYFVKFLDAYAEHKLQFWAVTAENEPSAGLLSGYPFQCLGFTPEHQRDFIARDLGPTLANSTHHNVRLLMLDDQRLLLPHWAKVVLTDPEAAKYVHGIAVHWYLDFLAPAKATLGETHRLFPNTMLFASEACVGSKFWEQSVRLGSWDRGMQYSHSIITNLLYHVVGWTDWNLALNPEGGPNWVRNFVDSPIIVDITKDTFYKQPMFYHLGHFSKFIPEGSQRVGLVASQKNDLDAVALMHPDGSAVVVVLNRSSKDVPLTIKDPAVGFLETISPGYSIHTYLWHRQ
Experiment: SPR, immobilized GCase on CM5 chip
Assay type: binding
Conditions: pH […] HEPES, […] EDTA, […] NaCl, […] Tween-20; no IFG; allosteric

Substance	Kd [µM]
GT-02287	17 to 24
GT-02329	> 90
